Test results: patent publication US11603359B2, “Benzothiadiazepine compounds and their use as bile acid modulators” (Albireo AB, priority 2019, dated 2023)

What was measured:
[1] = target: T1, human LBAT (Homo sapiens, UniProt Q14973); experiment: LBAT (h/m) assay, human LBAT-overexpressing cells, 3H-taurocholic acid uptake; assay type: cell-based; conditions: 0.3 μM 3H-taurocholic acid + 7.5 μM cold taurocholic acid, 20 minutes, read-out: hLBAT IC50
T1 construct: expressed in transfected cells; Geneticin-selected LBAT-overexpressing cells
T1 sequence (Q14973 1-349): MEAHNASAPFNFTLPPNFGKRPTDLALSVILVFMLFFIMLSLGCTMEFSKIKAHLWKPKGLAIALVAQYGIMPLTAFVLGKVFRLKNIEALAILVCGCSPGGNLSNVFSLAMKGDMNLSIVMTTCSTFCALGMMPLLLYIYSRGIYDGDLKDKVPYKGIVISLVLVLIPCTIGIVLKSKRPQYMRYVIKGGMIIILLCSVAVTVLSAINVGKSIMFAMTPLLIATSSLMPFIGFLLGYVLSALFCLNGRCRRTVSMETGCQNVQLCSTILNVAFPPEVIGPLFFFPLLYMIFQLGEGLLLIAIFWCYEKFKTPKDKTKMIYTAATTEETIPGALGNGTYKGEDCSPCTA
Method: 20,000 cells (Human or Mouse LBAT-overexpressing cells) were seeded in 96-wells plate (Corning CLS3809) in 100 μL MEM-alpha medium (Gibco 12571-063) supplemented with 10% FBS (Gibco 10438026) containing Geneticin (Gibco 10131-027) (1 mg/mL) and incubated at 37° C. in 5% CO2 for 24 hours. After incubation, media was decanted from the wells and cells were washed two times with 300 μL of basal MEM-alpha medium (FBS-free). After decanting basal MEM-alpha medium each time, plates were tapped against paper towel to ensure maximum removal of residual media.
For human LBAT, incubation mix was prepared by adding test inhibitor dilutions (3-fold serial dilution in DMSO (Sigma D2650), 10 points) in MEM-alpha (without FBS) containing 0.3 μM 3H-taurocholic acid (ARC ART-1368) and 7.5 μM cold taurocholic acid (Sigma T4009) (maintaining 0.2% final DMSO concentration). For mouse LBAT, incubation mix was prepared by adding test inhibitor dilutions (3-fold serial dilution in DMSO, 10 points) in MEM-alpha (without FBS) containing 0.3 μM 3H-taurocholic acid and 25 μM cold taurocholic acid maintaining 0.2% final DMSO concentration).
50 μL of incubation mix containing test inhibitors was then added to the wells (in duplicate) and the plates were incubated for 20 minutes in a CO2 incubator at 37° C. After incubation, the reaction was stopped by keeping the plates on ice water mix for 2-3 minutes and then the incubation mix was aspirated completely from the wells. The wells were washed two times with 250 μL of chilled unlabelled 1 mM taurocholic acid dissolved in HEPES (Gibco 15630080)-buffered (10 mM) HBSS (Gibco 14175079) (pH 7.4). The plates were tapped against a paper towel after every wash to ensure maximum removal of blocking buffer.
100 μL of MicroScint-20 (PerkinElmer 6013621) was added to the wells and kept overnight at room temperature before reading the plates in TopCount NXT™ Microplate Scintillation and Luminescence Counter from PerkinElmer under 3H Test protocol (set at 120 seconds reading time per well, with normal plate orientation).
All test compounds were provided in powder form at room temperature. 10 mM DMSO stocks of the test compounds were prepared, aliquoted and stored at −20° C. From the 10 mM DMSO stock of the compounds, a 3-fold serial dilution in DMSO was prepared to get a total of 10 dilutions of the test compounds. 0.5 μL of this dilution in DMSO was added to 250 μL of FBS-free basal media containing 3H-taurocholic acid and cold taurocholic acid to prepare the incubation mixture.

[2] = Bioavailability studies in mice; assay type: in vivo, mice (C57BL/6 or CD1); conditions: male, mouse, plasma, 1 mg/kg intravenous vs 10 mg/kg oral
Method: (§1) Male mice (C57BL/6 or CD1) or Wistar rats of 8-9 weeks old were used. For each test compound, two groups of 3 animals each were used. One group was administered a single intravenous dose of 1 mg/kg (vehicle 100% DMSO) through the tail vein and the other group was administered a single oral dose of 10 mg/kg through gavage needle. The group that was administered an oral dose was fasted overnight. Blood samples were collected after 0.083, 0.25, 0.5, 1, 2, 4, 6, 8 and 24 hours following intravenous administration, and after 0.25, 0.5, 1, 2, 4, 6, 8 and 24 hours following oral administration. Blood samples were taken from saphenous vein. 0.2% EDTA was used as the anticoagulant. The samples were analyzed by a discovery grade bioanalytical method developed for the estimation of test compound in plasma, using an LC-MS/MS system.

[3] = Bioavailability studies in rats; assay type: in vivo; conditions: male, Wistar, plasma, rat, 1 mg/kg intravenous vs 10 mg/kg oral
Method: as §1

| IC50 [1] [µM] | SMILES | other results |
| --- | --- | --- |
| 2.63 | CCCCC1(CCCC)CN(c2ccccc2)c2cc(SC)c(OC(C)CC(=O)O)cc2S(=O)(=O)N1 (centres unmarked) [Example 8, 3-((3,3-Dibutyl-7-(methylthio)-1,1-dioxido-5-phenyl-2,3,4,5-tetrahydro-1,2,5-benzothiadiazepin-8-yl)oxy)butanoic acid] | – |
| 2.22 | CCCCC1(CC)CN(c2ccccc2)c2cc(N(C)C)c(OCCC(=O)O)cc2S(=O)(=O)N1 (single isomer, unassigned) [Example 12, 3-((3-butyl-7-(dimethylamino)-3-ethyl-1,1-dioxido-5-phenyl-2,3,4,5-tetrahydro-1,2,5-benzothiadiazepin-8-yl)oxy)propanoic acid] | – |
| 1.17 | CCCCC1(CC)CN(c2ccccc2)c2cc(N(C)C)c(OCCC(=O)O)cc2S(=O)(=O)N1 (racemic) [Example 11, 3-((3-Butyl-7-(dimethylamino)-3-ethyl-1,1-dioxido-5-phenyl-2,3,4,5-tetrahydro-1,2,5-benzothiadiazepin-8-yl)oxy)propanoic acid] | – |
| 2.91 | CCCCC1(CCCC)CN(c2ccccc2)c2cc(SC)c(OCCC(=O)O)cc2S(=O)(=O)N1 [Example 1, 3-((3,3-Dibutyl-7-(methylthio)-1,1-dioxido-5-phenyl-2,3,4,5-tetrahydro-1,2,5-benzothiadiazepin-8-yl)oxy)propanoic acid] | bioavailability ([2]; C57BL/6 mice): 34%; bioavailability ([2]; CD1 mice): 59%; bioavailability ([3]; Na^+ salt): 98% |
| 7.21 | CCCCC1(CCCC)CN(c2ccc(O)cc2)c2cc(SC)c(OCCC(=O)O)cc2S(=O)(=O)N1 [Example 10, 3-((3,3-dibutyl-5-(4-hydroxyphenyl)-7-(methylthio)-1,1-dioxido-2,3,4,5-tetrahydro-1,2,5-benzothiadiazepin-8-yl)oxy)propanoic acid] | – |
| 2.22 | CCCCC1(CCCC)CN(c2ccccc2)c2cc(SC)c(OCC(O)C(=O)O)cc2S(=O)(=O)N1 (single isomer, unassigned) [Example 7, 3-((3,3-dibutyl-7-(methylthio)-1,1-dioxido-5-phenyl-2,3,4,5-tetrahydro-1,2,5-benzothiadiazepin-8-yl)oxy)-2-hydroxypropanoic acid] | – |
| 1.62 | CCCCC1(CCCC)CN(c2ccccc2)c2cc(Cl)c(OCCC(=O)O)cc2S(=O)(=O)N1 [Example 9, 3-((3,3-dibutyl-7-chloro-1,1-dioxido-5-phenyl-2,3,4,5-tetrahydro-1,2,5-benzothiadiazepin-8-yl)oxy)propanoic acid] | – |
| 1.88 | CCCCC1(CCCC)CN(c2ccccc2)c2cc(SC)c(OCC(O)C(=O)O)cc2S(=O)(=O)N1 (racemic) [Example 5, 3-((3,3-dibutyl-7-(methylthio)-1,1-dioxido-5-phenyl-2,3,4,5-tetrahydro-1,2,5-benzothiadiazepin-8-yl)oxy)-2-hydroxypropanoic acid] | – |
| 3.65 | CCCCC1(CC)CN(c2ccccc2)c2cc(SC)c(OCCC(=O)O)cc2S(=O)(=O)N1 (single isomer, unassigned) [Example 4, 3-((3-butyl-3-ethyl-7-(methylthio)-1,1-dioxido-5-phenyl-2,3,4,5-tetrahydro-1,2,5-benzothiadiazepin-8-yl)oxy)propanoic acid] | bioavailability ([2]; CD1 mice): 45%; bioavailability [3]: 90% |
